Tests used:
[1] = Aqueous solubility in acidified water; type: physicochemical; settings: aqueous buffer; in acidified water pH~4
[2] = In vivo pharmacokinetics in mouse; settings: plasma
[3] = In vivo pharmacokinetics in guinea pig; settings: plasma
[4] = CellTiter-Glo Luminescent Cell Viability Assay (cytotoxicity); type: cell-based; settings: African green monkey; Vero cells, 3-5 days in culture
Protocol: Cytotoxicity: To determine the cytotoxicity of the compounds in Vero cells, the CellTiter-Glo Luminescent Cell Viability Assay (Promega) was used. The compounds were tested at 6-8 concentrations in three replicates. Control conditions include vehicle-only treated cells to set 100% surviving cells, DMSO-killed cells as a cell death-inducing control, and no cells for 0% surviving cells. Cytotoxicity is measured after 3-5 days in culture by the change/decrease in relative light units (RLUs) in each sample which reflects the amount of ATP present (an indicator of metabolically active cells).
The 50% cellular cytotoxicity (CC50) value is calculated based on the RLUs of the compound-treated samples using vehicle-only control as 100% survival and no cells as 0% survival.

[5] = tested on: dengue virus (DENV serotype 2, strain New Guinea C); experiment: microbe, parasite or virus in culture; type: cell-based; settings: DENV2, 120 h, virus yield reduction in Vero cells, 5 days
[6] = tested on: Venezuelan Equine Encephalitis Virus (VEEV TC-83 stain); experiment: microbe, parasite or virus in culture; type: cell-based; settings: Vero, 72 h, read-out: IC50 Venezuelan Equine Encephalitis TC-83 (VEEV)
[7] = Aqueous solubility in gastric and intestinal fluids (Cerep); type: physicochemical
Protocol: (§1) Assays for drug likeness (solubility, microsomal stability, plasma protein binding, A-B efflux, cytochrome CYP450 3A4, hERG binding, and Ames) were carried out by Cerep (Washington USA, and France) using standard protocols for in vitro testing. Assay protocols are provided online at http://www.cerep.fecerep/users/pages/catalog/profiles/catalog.asp and Cerep standard procedures and concentrations were used for all assays.

[8] = In vivo pharmacokinetics and oral bioavailability in rat; set-up: species or system male Sprague-Dawley rats; settings: male, Sprague-Dawley, plasma
Protocol: In vivo pharmacokinetic parameters and oral bioavailability for UV-0060 was determined by Eurofins (Cerep Panlabs, Taiwan). A pharmacokinetic study following oral and intravenous administrations was performed using male Sprague-Dawley rats. Test article was formulated in 2% DMSO/0.9% NaCl and administered orally (PO) at 10 mg/kg and intravenously (IV) at 5 mg/kg to groups of 3 rats. The dosing volume was 10 mL/kg for PO and 5 mL/kg for IV. Rats weighing 220±20 g were used. Blood samples were harvested at 3, 10, 30, 60, 120, 240, 360, 720 and 1440 minutes after intravenous injection and at 10, 30, 60, 120, 240, 360, 720 and 1440 minutes after oral administration. Blood was collected in tubes coated with lithium heparin, mixed gently, then kept on ice and centrifuged at 2,500×g for 15 minutes at 4° C., within 1 hour of collection. The plasma was harvested and kept frozen at −80° C. until further processing. A plasma calibration curve from 3-10000 ng/mL was generated using oxybutynin as internal standard. Aliquots of drug-free plasma were spiked with the test compound at the specified concentration levels. Plasma samples were processed using acetonitrile precipitation and analyzed by HPLC/MS/MS. The spiked plasma samples were processed together with the unknown plasma samples using the same procedure. HPLC/MS/MS analysis was carried out with electrospray ionization in positive ion mode with multiple reaction monitoring. HPLC column was Agilent Poroshell 120 EC-C18 column 2.7 μm (3.0×50 mm, 23° C.) with an acetonitrile/water/formic acid mobile phase gradient. Standards data were fitted linearly with a 1/x2 weighting.

[9] = Human microsomal stability (Cerep); type: in vitro ADME; settings: human microsomes; read-out: Human microsomal stability: t½
Protocol: as §1

[10] = Human plasma protein binding (Cerep); type: in vitro ADME
Protocol: as §1

[11] = A-B Efflux (Caco2) (Cerep); type: in vitro ADME; settings: human, Caco-2
Protocol: as §1

CYP3A4 = biological target: T1, CYP3A4 (Homo sapiens, UniProt P08684); experiment: CYP450 3A4 inhibition (Cerep); type: in vitro ADME
T1 construct: Cerep
Protocol: as §1

Ames (Cerep) = settings: with or without S9 activation
Protocol: as §1

[12] = Mouse, single dose, tested IV, oral routes
[13] = Guinea pig, single dose, tested IV, SQ, IM routes

T1 sequence (P08684 whole entry): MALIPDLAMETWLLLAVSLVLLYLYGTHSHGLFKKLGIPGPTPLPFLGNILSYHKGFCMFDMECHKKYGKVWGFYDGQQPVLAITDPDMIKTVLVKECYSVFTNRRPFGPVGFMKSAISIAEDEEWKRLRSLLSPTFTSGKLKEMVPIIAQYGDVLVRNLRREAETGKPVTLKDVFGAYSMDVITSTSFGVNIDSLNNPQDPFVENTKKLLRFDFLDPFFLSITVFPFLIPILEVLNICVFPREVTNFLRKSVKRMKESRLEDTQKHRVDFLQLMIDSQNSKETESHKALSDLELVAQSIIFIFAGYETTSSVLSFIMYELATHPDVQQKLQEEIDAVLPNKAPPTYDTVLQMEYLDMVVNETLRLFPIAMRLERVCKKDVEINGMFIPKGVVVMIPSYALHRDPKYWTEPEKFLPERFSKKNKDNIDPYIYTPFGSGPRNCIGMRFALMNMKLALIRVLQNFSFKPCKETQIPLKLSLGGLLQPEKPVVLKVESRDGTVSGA

Work on [N-]=[N+]=Nc1ccc(NCCCCCCN2C[C@H](O)[C@@H](O)[C@H](O)[C@H]2CO)c([N+](=O)[O-])c1 [UV-5] yielded a solubility [1] greater than 112 mg/mL, a half-life ([2]; mouse, Mouse, single dose, tested IV, oral routes, read-out: T1/2) of 4.09 to 8.96 h and a half-life ([2]; mouse, mice, read-out: Plasma t½) of roughly 4 h. The bioavailability ([2]; mouse, mice, oral) was 80%, the Cmax [2, 12] was 14400 ng/mL and the Tmax [2, 12] was 1 h. It also gave a clearance ([3]; guinea pig) of 233 mL/min/kg, a half-life ([3]; guinea pig, Guinea pig, single dose, tested IV, SQ, IM routes, read-out: T½) of 1.62 to 3.99 h and a half-life ([3]; guinea pig, guinea pig, read-out: Plasma t½) of 1.62 h. For the same compound, the Vd ([3]; guinea pig, read-out: Vss) was 16.9 L/kg, the bioavailability ([3]; other: IM, Guinea pig, IM, SC) was 187 to 198% and the Cmax [3, 13] was 2320 to 3790 ng/mL. The Tmax [3, 13] was 0.75 to 1.13 h.

For OC[C@@H]1[C@@H](O)[C@H](O)[C@@H](O)CN1CCCCCCCCc1ccco1 [UV-30, (2R,3R,4R,5S)-1-(8-(furan-2-yl)octyl)-2-(hydroxymethyl)piperidine-3,4,5-triol], the CC50 [4] was no less than 125 µM, the IC50 [5] was 7 µM and the IC50 [6] was 14 µM.

O=[N+]([O-])c1cc(-n2nccn2)ccc1NCCCCCCN1C[C@H](O)[C@@H](O)[C@H](O)[C@H]1CO [UV-0060] showed a CC50 [4] of 245 µM, an IC50 [5] of 5 µM and an IC50 [6] of 94.1 µM. For the same compound, the solubility ([7]; gastric fluid, simulated gastric fluid, read-out: Aqueous solubility in gastric fluid) was greater than 200 µM, the solubility ([7]; intestinal fluid, fassgf or other biorelevant, read-out: Aqueous solubility in intestinal fluid) was greater than 200 µM and the bioavailability ([8]; PO 10 mg/kg vs IV 5 mg/kg) was 6%. It also gave a clearance ([8]; single dose, IV 5 mg/kg) of 72.9 mL/min/kg, a half-life ([8]; single dose, IV 5 mg/kg, read-out: T1/2 (IV)) of 2.8 h and a Tmax ([8]; single dose, PO 10 mg/kg) of 2.2 h. For the same compound, the half-life ([8]; single dose, PO 10 mg/kg, read-out: T1/2 (PO)) was 2.2 h, the half-life [9] was greater than 1 h and the fraction unbound at 10 microM [10] was 0.12. For the same compound, the Papp A→B [11] was roughly 0.3 ×10⁻⁶ cm/s, the inhibition at 10 µM (CYP3A4) was 0.2% and the Ames (Ames (Cerep)) was “Ames: negative with or without S9”.
